Measurements taken from ChEMBL document CHEMBL1201862, “PubChem BioAssay data set” (2004).
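Assay format: 96-well plates, 48-hour exposure. Abbreviation: GI50, concentration required for 50% inhibition of growth.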 Calls of active or inactive are those of the source. Cut-off read from the data, not from the text of the source: active = GI50 up to about 1.1 µM and inactive = higher.

Key:
Assay in all cases: NCI tumour cell line growth inhibition, 48 h
[1] = system: KM12
[2] = system: NCI/ADR-RES
[3] = system: EKVX
[4] = system: CAKI-1
[5] = system: BT-549
[6] = system: SK-MEL-28
[7] = system: RXF 393
[8] = system: MDA-MB-231
[9] = system: NCI-H522
[10] = system: SF-268
[11] = system: OVCAR-3
[12] = system: A549
[13] = system: SF-539
[14] = system: MCF7
[15] = system: UO-31
[16] = system: HL-60
[17] = system: PC-3
[18] = system: HCC 2998
[19] = system: NCI-H23
[20] = system: HOP-92

Measured: GI50

C/C=C/C(O)P(=O)(OC)OC (stereo not drawn)
active: [1] 0.278 µM | [2] 0.473 µM | [3] 0.308 µM | [4] 0.589 µM | [5] 0.594 µM | [6] 0.32 µM | [7] 0.215 µM | [8] 0.428 µM | [9] 0.214 µM | [10] 0.263 µM | [11] 0.255 µM | [12] 0.274 µM | [13] 0.279 µM | [14] 0.269 µM | [15] 0.164 µM | [16] 0.256 µM | [17] 0.407 µM | [18] 0.27 µM | [19] 0.307 µM | [20] < 0.0385 µM

CC[C@@H]([C@H](O)c1ccccc1Cl)[N+](=O)[O-]
inactive: [1] > 100 µM | [2] > 100 µM | [3] > 100 µM | [4] > 100 µM | [5] > 100 µM | [6] > 100 µM | [7] > 100 µM | [8] > 100 µM | [9] 90.4 µM | [10] > 100 µM | [11] > 100 µM | [12] > 100 µM | [13] 59 µM | [14] 16.4 µM | [15] > 100 µM | [16] 7.82 µM | [17] 61.4 µM | [18] > 100 µM | [19] > 100 µM | [20] > 100 µM

CC(C(N)=O)N(C)C(=O)c1cnc2ccccc2c1 (stereo not drawn)
inactive: [1] > 100 µM | [2] > 100 µM | [4] > 100 µM | [5] > 100 µM | [6] > 100 µM | [7] > 100 µM | [8] > 100 µM | [9] > 100 µM | [10] > 10 µM | [11] > 100 µM | [12] > 100 µM | [13] > 100 µM | [14] > 100 µM | [15] > 100 µM | [16] > 100 µM | [17] > 100 µM | [18] > 100 µM | [19] > 10 µM | [20] > 100 µM

COc1ccc(C[C@@H]2NC[C@@H](O)[C@@H]2OC(C)=O)cc1
active: [1] 0.027 µM | [2] 0.0001 µM | [3] 0.0475 µM | [4] 0.0251 µM | [5] 0.0329 µM | [6] 0.0206 µM | [7] 0.00641 µM | [8] 0.0196 µM | [9] 0.0232 µM | [10] 0.0232 µM | [11] 0.0256 µM | [12] 0.0316 µM | [13] 0.0234 µM | [14] 0.0135 µM | [15] 0.0247 µM | [16] 0.00374 µM | [17] 0.0196 µM | [18] 0.0208 µM | [19] 0.021 µM | [20] 0.00618 µM

O=c1ssc(Cl)c1Nc1c(Cl)ssc1=O
inactive: [1] 17.3 µM | [2] 27.2 µM | [3] 20.6 µM | [4] 15.2 µM | [5] 18.7 µM | [6] 28.4 µM | [7] 15 µM | [8] 22.3 µM | [9] 19.6 µM | [10] 23.1 µM | [11] 20.5 µM | [12] 21.7 µM | [13] 25.1 µM | [14] 24.3 µM | [15] 14.4 µM | [16] 7.85 µM | [17] 18.9 µM | [18] 22.3 µM | [19] 19.9 µM | [20] 20 µM

OC1c2[nH]c3ccccc3c2CCN2CCCCC12 (stereo not drawn)
inactive: [1] > 100 µM | [2] > 100 µM | [3] > 100 µM | [4] > 100 µM | [5] > 100 µM | [6] > 100 µM | [7] > 100 µM | [8] > 100 µM | [9] > 100 µM | [10] > 100 µM | [11] > 100 µM | [12] > 100 µM | [13] > 100 µM | [14] > 100 µM | [16] > 100 µM | [17] > 100 µM | [18] 75.3 µM | [19] > 100 µM | [20] 51.1 µM

O=C(O)C1(Cc2ccccc2)Cc2cc3c(cc2C1)CCC3
inactive: [1] 68.4 µM | [2] 89.3 µM | [3] 54.2 µM | [5] > 100 µM | [6] > 100 µM | [7] > 100 µM | [8] > 100 µM | [9] > 100 µM | [10] 78.9 µM | [11] > 100 µM | [12] 51.4 µM | [13] > 100 µM | [14] > 100 µM | [15] 95.3 µM | [16] 48.9 µM | [17] > 100 µM | [18] 58.2 µM | [19] > 100 µM | [20] 21 µM

COC(=O)C(=O)c1c2ccccc2n2ccc3c4ccccc4[nH]c3c12
inactive: [1] > 10 µM | [2] > 10 µM | [4] > 10 µM | [5] > 10 µM | [7] > 10 µM | [8] 9.18 µM | [9] > 10 µM | [10] > 10 µM | [11] > 10 µM | [12] > 10 µM | [13] 3.27 µM | [14] > 10 µM | [15] > 10 µM | [16] > 10 µM | [17] > 10 µM | [18] > 10 µM | [19] > 10 µM | [20] > 10 µM
active: [3] 0.406 µM

CC(=O)O[C@H]1C(=O)[C@@]2(C)C(C(OC(=O)c3ccccc3)[C@]3(O)CC(OC(=O)C(O)C(NC(=O)c4ccccc4)c4ccc(F)cc4)C(C)=C1C3(C)C)[C@]1(OC(C)=O)CO[C@@H]1C[C@@H]2O (stereo partly drawn)
active: [1] < 0.001 µM | [2] 0.647 µM | [3] 0.00857 µM | [4] 0.0942 µM | [5] 0.00152 µM | [7] < 0.001 µM | [8] 0.00181 µM | [9] < 0.001 µM | [10] < 0.001 µM | [11] < 0.001 µM | [12] 0.00104 µM | [13] < 0.001 µM | [14] < 0.001 µM | [15] 0.166 µM | [16] < 0.001 µM | [17] < 0.001 µM | [18] 0.00124 µM | [19] 0.0011 µM
inactive: [20] 3.43 µM

C1COCCN1.CN(C)c1ccc(-c2c(C#N)c(N)nc(S)c2C#N)cc1
inactive: [2] > 100 µM | [3] > 100 µM | [4] 43.9 µM | [5] 83 µM | [6] 82.6 µM | [7] 23.5 µM | [8] 34.4 µM | [9] 29 µM | [10] > 100 µM | [11] > 100 µM | [12] > 100 µM | [13] > 100 µM | [14] 53.1 µM | [15] 64.1 µM | [16] > 100 µM | [17] 30.5 µM | [18] 56.1 µM | [19] 60 µM | [20] 21.8 µM

O=c1cc(N2CCNCC2)nc2ccccn12
inactive: [1] > 100 µM | [2] > 100 µM | [3] > 100 µM | [4] > 100 µM | [5] > 100 µM | [7] > 100 µM | [8] > 100 µM | [9] > 100 µM | [10] > 100 µM | [11] > 100 µM | [12] > 100 µM | [13] > 100 µM | [14] > 100 µM | [15] > 100 µM | [16] > 100 µM | [17] > 100 µM | [18] > 100 µM | [19] > 100 µM | [20] > 100 µM
